Laboratory results from PMC7255801, “Disease-associated mutations in the human TRPM3 render the channel overactive via two distinct mechanisms” (eLife, 2020).

Experiments:
[1] = system: non-injected oocytes; assay: Two electrode voltage clamp in non-injected oocytes; type: cell-based, Xenopus laevis; conditions: 50 μM, n = 5
Method: (§1) Xenopus laevis oocytes were prepared as described earlier ([Badheka et al., 2015]). All animal procedures were approved by the Institutional Animal Care and Use Committee at Rutgers New Jersey Medical School. In brief, frogs were anesthetized in 0.25% ethyl 3-aminobenzoate methanesulfonate solution (MS222; Sigma-Aldrich); bags of ovaries were removed surgically from the anesthetized frogs. Individual oocytes were obtained by overnight digestion at 16°C in 0.2–0.3 mg/ml type 1A collagenase (Sigma-Aldrich), dissolved in a solution containing 82.5 mM NaCl, 2 mM KCl, 1 mM MgCl2, and […] HEPES, pH 7.4 (OR2 solution). The next day the collagenase containing solution was discarded and the oocytes were washed multiple times with OR2 solution. […]
(§2) Two electrode voltage clamp experiments were performed as described ([Badheka et al., 2015]). In brief, oocytes were placed in extracellular solution (97 mM NaCl, 2 mM KCl, 1 mM MgCl2, and […] HEPES, pH 7.4), and currents were recorded with thin-wall inner filament– containing glass pipettes (World Precision Instruments) filled with 3 M KCl in 1% agarose. Currents were measured with a ramp protocol from −100 to 100 mV once every 0.5 s with a GeneClamp 500B amplifier and analyzed with the pClamp 9.0 software (Molecular Devices). […]

[2] = target: T1, hTRPM3_1325 V990M (Homo sapiens, UniProt Q9HCF6, V1015M); assay: Two electrode voltage clamp in Xenopus oocytes, V990M mutant; type: cell-based; conditions: V990M compared with P1090Q, 50 μM, 100 and −100 mV, room temperature (20–22°C)
T1 construct: expressed in transfected cells; host or cells: Xenopus laevis oocytes (cRNA injection)
T1 sequence (Q9HCF6 1-1325 isoform Q9HCF6-10 V990M): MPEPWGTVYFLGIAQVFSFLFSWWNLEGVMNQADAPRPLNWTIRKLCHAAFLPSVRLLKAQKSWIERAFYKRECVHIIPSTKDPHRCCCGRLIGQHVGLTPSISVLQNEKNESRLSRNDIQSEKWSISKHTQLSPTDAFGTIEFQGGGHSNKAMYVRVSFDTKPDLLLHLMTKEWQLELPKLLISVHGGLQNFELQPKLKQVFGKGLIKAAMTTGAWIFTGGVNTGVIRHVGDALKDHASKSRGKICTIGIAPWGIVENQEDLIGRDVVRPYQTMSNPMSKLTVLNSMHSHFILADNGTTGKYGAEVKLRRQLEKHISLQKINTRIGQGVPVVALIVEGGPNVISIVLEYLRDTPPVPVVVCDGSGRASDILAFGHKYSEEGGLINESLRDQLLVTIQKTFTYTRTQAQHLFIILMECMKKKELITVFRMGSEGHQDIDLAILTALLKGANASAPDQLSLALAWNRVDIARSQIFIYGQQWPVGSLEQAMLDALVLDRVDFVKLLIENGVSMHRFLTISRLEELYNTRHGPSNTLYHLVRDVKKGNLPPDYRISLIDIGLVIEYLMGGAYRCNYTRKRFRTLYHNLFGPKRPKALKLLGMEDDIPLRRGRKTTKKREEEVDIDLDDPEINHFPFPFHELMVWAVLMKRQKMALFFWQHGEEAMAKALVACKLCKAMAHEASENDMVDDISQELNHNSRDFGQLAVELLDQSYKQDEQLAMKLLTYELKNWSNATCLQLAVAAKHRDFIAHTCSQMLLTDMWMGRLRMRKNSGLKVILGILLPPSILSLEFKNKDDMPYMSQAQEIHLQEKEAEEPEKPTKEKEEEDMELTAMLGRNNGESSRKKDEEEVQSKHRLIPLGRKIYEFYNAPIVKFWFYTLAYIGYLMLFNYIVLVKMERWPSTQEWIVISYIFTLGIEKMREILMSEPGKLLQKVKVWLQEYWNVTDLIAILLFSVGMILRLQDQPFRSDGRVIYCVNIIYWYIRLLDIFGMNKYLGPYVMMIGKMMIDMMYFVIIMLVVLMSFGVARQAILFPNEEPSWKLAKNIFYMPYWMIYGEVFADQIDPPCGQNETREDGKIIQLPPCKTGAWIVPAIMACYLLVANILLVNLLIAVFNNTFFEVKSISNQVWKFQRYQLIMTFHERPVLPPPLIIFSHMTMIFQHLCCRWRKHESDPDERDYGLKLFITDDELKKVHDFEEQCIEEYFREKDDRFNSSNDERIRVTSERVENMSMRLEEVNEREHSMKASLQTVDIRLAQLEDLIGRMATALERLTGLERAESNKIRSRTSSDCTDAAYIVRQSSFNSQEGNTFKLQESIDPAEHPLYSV
Method: as §1, §2

Question: With `CCC1(c2ccccc2)C(=O)NCNC1=O` [primidone] as the compound, how does the “Inhibition of basal current” value [1] read?
Answer: did not induce any inhibition

Question: And the “Inhibition of basal current” value [2]?
Answer: significantly larger inhibition
